Measurements reported in article PMC9865890, “N-Derivatives of (Z)-Methyl 3-(4-Oxo-2-thioxothiazolidin-5-ylidene)methyl)-1H-indole-2-carboxylates as Antimicrobial Agents—In Silico and In Vitro Evaluation” (Pharmaceuticals, 2023).
≈ marks a conversion by molar mass, not a printed value. Where two headings read alike, the source gives them in different places.

Experiments:
[1] = test system: Penicillium verrucosum var. cyclopium (food isolate); experiment: Antifungal bioassay (MIC/MFC); assay type: cell-based
Method: For the antifungal bioassays, six fungi were used: Aspergillus niger (ATCC 6275), Aspergillus fumigatus (ATCC 1022), Aspergillus versicolor (ATCC 11730), Penicillium funiculosum (ATCC 36839), Trichoderma viride (IAM 5061), and Penicillium verrucosum var. cyclopium (food isolate). The organisms were obtained from the Mycological Laboratory, Department of Plant Physiology, Institute for Biological Research “Siniša Stankovic”, Belgrade, Serbia. All experiments were performed in duplicate.

[2] = test system: Listeria monocytogenes (NCTC 7973); experiment: Antibacterial microdilution (MIC/MBC); assay type: cell-based; conditions: Listeria monocytogenes, NCTC7973, L.m. (L. monocytogenes); for MIC: read-out: MIC
Method: (§1) The synthesized compounds (Table 1) were evaluated for their antibacterial activity against a panel of eight species using a microdilution method with ampicillin and streptomycin as reference drugs. […] The order of activity can be presented as: 8 > 11 > 2 > 1 > 12 > 3 > 17 > 7 > 5 > 13 > 14 > 16 > 9 > 4 = 6 > 15 > 10. […] Cloacae. […] The most sensitive bacteria appeared to be En. cloacae, while E. coli was the most resistant one, followed by M. flavus.
(§2) The following Gram-negative bacteria: Escherichia coli (ATCC 35210), Enterobacter cloacae (clinical isolate), Salmonella typhimurium (ATCC 13311), as well as Gram-positive bacteria: Listeria monocytogenes (NCTC 7973), Bacillus cereus (clinical isolate), and Staphylococcus aureus (ATCC 6538) were used. The organisms were obtained from the Mycological Laboratory, Department of Plant Physiology, Institute for Biological Research “Siniša Stankovic”, Belgrade, Serbia. The minimum inhibitory (MIC) and minimum bactericidal (MBC) concentrations were determined by the modified microdilution method, as previously reported.

[3] = test system: Enterobacter cloacae (clinical isolate); experiment: Antibacterial microdilution (MIC/MBC); assay type: cell-based; conditions: Enterobacter cloacae, En.cl (En. cloacae); for MIC: read-out: MIC
Method: as §1, §2

[4] = test system: Staphylococcus aureus (ATCC 6538); experiment: Antibacterial microdilution (MIC/MBC); assay type: cell-based; conditions: Staphylococcus aureus, ATCC6538, S.a. (S. aureus); for MIC: read-out: MIC
Method: as §1, §2

[5] = test system: Bacillus cereus (clinical isolate); experiment: Antibacterial microdilution (MIC/MBC); assay type: cell-based; conditions: B.c. (B. cereus)
Method: as §1, §2

P. aeruginosa = experiment: Antibacterial microdilution (MIC/MBC); assay type: cell-based; conditions: Pseudomonas aeruginosa, P.a. (P. aeruginosa); for MIC: read-out: MIC
Method: as §1, §2

[6] = test system: Escherichia coli (ATCC 35210); experiment: Antibacterial microdilution (MIC/MBC); assay type: cell-based; conditions: E. coli
Method: as §1, §2

[7] = test system: Salmonella typhimurium (ATCC 13311); experiment: Antibacterial microdilution (MIC/MBC); assay type: cell-based; conditions: S.t. (S. typhimurium)
Method: as §1, §2

M. flavus = experiment: Antibacterial microdilution (MIC/MBC); assay type: cell-based; conditions: Micrococcus flavus; M.f. (M. flavus)
Method: as §1, §2

[8] = test system: Aspergillus fumigatus (ATCC 1022); experiment: Antifungal bioassay (MIC/MFC); assay type: cell-based; conditions: ATCC1022, A.f. (A. fumigatus)
Method: (§3) For the antifungal bioassays, six fungi were used: […] The organisms were obtained from the Mycological Laboratory, Department of Plant Physiology, Institute for Biological Research “Siniša Stankovic”, Belgrade, Serbia. All experiments were performed in duplicate.

[9] = test system: Aspergillus versicolor (ATCC 11730); experiment: Antifungal bioassay (MIC/MFC); assay type: cell-based; conditions: ATCC11730, A.v. (A. versicolor)
Method: as §3

A. ochraceus = experiment: Antifungal bioassay (MIC/MFC); assay type: cell-based; conditions: A.o. (A. ochraceus)
Method: as §3

[10] = test system: Trichoderma viride (IAM 5061); experiment: Antifungal bioassay (MIC/MFC); assay type: cell-based; conditions: T.v. (T. viride)
Method: as §3

[11] = test system: Aspergillus niger (ATCC 6275); experiment: Antifungal bioassay (MIC/MFC); assay type: cell-based; conditions: ATCC6275, A.n. (A. niger)
Method: as §3

[12] = test system: Penicillium funiculosum (ATCC 36839); experiment: Antifungal bioassay (MIC/MFC); assay type: cell-based; conditions: Talaromyces funiculosus, ATCC36839; P.f. (P. funiculosum)
Method: as §3

P. ochrochloron = experiment: Antifungal bioassay (MIC/MFC); assay type: cell-based; conditions: for MIC: P.o. (P. ochrochloron; text: P. ochramensis); for MFC: P.o. (P. ochrochloron)
Method: as §3

[13] = Escherichia coli, ATCC35210, read-out: MIC
[14] = Salmonella enterica, read-out: MIC
[15] = Aspergillus ochraceus, read-out: MIC
[16] = Trichoderma viride, IAM5061, read-out: MIC
[17] = Penicillium ochrochloron, read-out: MIC

Structure (SMILES) | MFC [1] [µg/mL] | MIC [1] [µg/mL] | MBC [2] [µg/mL] | MIC [2] [µg/mL] | MBC [3] [µg/mL] | MIC [3] [µg/mL] | MBC [4] [µg/mL] | MIC [4] [µg/mL] | MBC ([5]; Bacillus cereus) [µg/mL] | MIC ([5]; Bacillus cereus, read-out: MIC) [µg/mL] | MBC (P. aeruginosa) [µg/mL] | MIC (P. aeruginosa) [µg/mL] | MBC ([6]; Escherichia coli, ATCC35210) [µg/mL] | MIC [6, 13] [µg/mL] | MBC ([7]; Salmonella enterica) [µg/mL] | MIC [7, 14] [µg/mL] | MBC (M. flavus) [µg/mL] | MIC (M. flavus) [µg/mL] | melting point [°C] | MFC [8] [µg/mL] | also measured
COC(=O)c1[nH]c2ccccc2c1/C=C1\SC(=S)N(CCCCCC(=O)O)C1=O [Compound 1, (Z)-6-(5-((2-(methoxycarbonyl)-1H-indol-3-yl)methylene)-4-oxo-2-thioxothiazolidin-3-yl)hexanoic acid] | 60 ± 6 (≈ 139 µM) | 30 ± 10 (≈ 69.4 µM) | 60 ± 6 (≈ 139 µM) | 22 ± 4 (≈ 50.9 µM) | 30 ± 10 (≈ 69.4 µM) | 22 ± 5 (≈ 50.9 µM) | 30 ± 10 (≈ 69.4 µM) | 22 ± 5 (≈ 50.9 µM) | 30 ± 10 (≈ 69.4 µM) | 15 (≈ 34.7 µM) | 60 ± 6 (≈ 139 µM) | 22 ± 5 (≈ 50.9 µM) | 30 ± 10 (≈ 69.4 µM) | 15 (≈ 34.7 µM) | 30 ± 10 (≈ 69.4 µM) | 15 (≈ 34.7 µM) | 30 ± 10 (≈ 69.4 µM) | 22 ± 5 (≈ 50.9 µM) | 135 to 138 | 120 ± 40 (≈ 277 µM) | MIC [5]: 15 ± 9 µg/mL (≈ 34.7 µM); MIC [6]: 15 ± 9 µg/mL (≈ 34.7 µM); MIC [7]: 15 ± 9 µg/mL (≈ 34.7 µM); MIC [8]: 60 ± 6 µg/mL (≈ 139 µM); MFC [9]: 60 ± 6 µg/mL (≈ 139 µM); MIC [9]: 30 ± 10 µg/mL (≈ 69.4 µM); MIC (A. ochraceus): 8 ± 0.6 µg/mL (≈ 18.5 µM); MFC (A. ochraceus; Aspergillus ochraceus): 15 ± 3 µg/mL (≈ 34.7 µM); MIC (A. ochraceus; [15]): 8 µg/mL (≈ 18.5 µM); MFC ([10]; Trichoderma viride, IAM5061): 30 ± 10 µg/mL (≈ 69.4 µM); MIC [10, 16]: 15 ± 3 µg/mL (≈ 34.7 µM); MFC [11]: 30 ± 10 µg/mL (≈ 69.4 µM); MIC [11]: 22 ± 5 µg/mL (≈ 50.9 µM); MFC [12]: 30 ± 10 µg/mL (≈ 69.4 µM); MIC [12]: 15 ± 3 µg/mL (≈ 34.7 µM); MIC (P. ochrochloron): 4 ± 1 µg/mL (≈ 9.25 µM); MFC (P. ochrochloron; Penicillium ochrochloron): 8 ± 0.6 µg/mL (≈ 18.5 µM); MIC (P. ochrochloron; [17]): 4 µg/mL (≈ 9.25 µM)
COC(=O)c1[nH]c2ccc(F)cc2c1/C=C1\SC(=S)N(N2CCOCC2)C1=O [Compound 16, (Z)-methyl 5-fluoro-3-((3-morpholino-4-oxo-2-thioxothiazolidin-5-ylidene)methyl)-1H-indole-2-carboxylate] | 30 ± 10 (≈ 71.2 µM) | 15 ± 3 (≈ 35.6 µM) | 60 ± 6 (≈ 142 µM) | 45 ± 3 (≈ 107 µM) | 60 ± 6 (≈ 142 µM) | 45 ± 3 (≈ 107 µM) | 30 ± 10 (≈ 71.2 µM) | 22 ± 5 (≈ 52.2 µM) | 30 ± 10 (≈ 71.2 µM) | 15 ± 9 (≈ 35.6 µM) | 60 ± 6 (≈ 142 µM) | 30 ± 10 (≈ 71.2 µM) | 60 ± 6 (≈ 142 µM) | 30 ± 10 (≈ 71.2 µM) | 60 ± 6 (≈ 142 µM) | 45 ± 3 (≈ 107 µM) | 60 ± 6 (≈ 142 µM) | 45 ± 3 (≈ 107 µM) | 273 to 274 | 30 ± 10 (≈ 71.2 µM) | MIC [8]: 15 ± 3 µg/mL (≈ 35.6 µM); MFC [9]: 30 ± 10 µg/mL (≈ 71.2 µM); MIC [9]: 15 ± 3 µg/mL (≈ 35.6 µM); MFC (A. ochraceus; Aspergillus ochraceus): 30 ± 10 µg/mL (≈ 71.2 µM); MIC (A. ochraceus; [15]): 15 ± 3 µg/mL (≈ 35.6 µM); MIC [10]: 8 ± 0.6 µg/mL (≈ 19 µM); MFC ([10]; Trichoderma viride, IAM5061): 15 ± 3 µg/mL (≈ 35.6 µM); MIC [10, 16]: 8 µg/mL (≈ 19 µM); MFC [11]: 30 ± 10 µg/mL (≈ 71.2 µM); MIC [11]: 15 ± 3 µg/mL (≈ 35.6 µM); MFC [12]: 30 ± 10 µg/mL (≈ 71.2 µM); MIC [12]: 15 ± 3 µg/mL (≈ 35.6 µM); MFC (P. ochrochloron; Penicillium ochrochloron): 30 ± 10 µg/mL (≈ 71.2 µM); MIC (P. ochrochloron; [17]): 15 ± 3 µg/mL (≈ 35.6 µM)
COC(=O)c1[nH]c2ccc(F)cc2c1/C=C1\SC(=S)N(CCCC(=O)O)C1=O [Compound 9, (Z)-4-(5-((5-fluoro-2-(methoxycarbonyl)-1H-indol-3-yl)methylene)-4-oxo-2-thioxothiazolidin-3-yl)butanoic acid] | 15 ± 3 (≈ 35.5 µM) | 22 ± 5 (≈ 52.1 µM) | 60 ± 6 (≈ 142 µM) | 30 ± 10 (≈ 71 µM) | 60 ± 6 (≈ 142 µM) | 30 ± 10 (≈ 71 µM) | 60 ± 6 (≈ 142 µM) | 30 ± 10 (≈ 71 µM) | 60 ± 6 (≈ 142 µM) | 30 ± 10 (≈ 71 µM) | 60 ± 6 (≈ 142 µM) | 30 ± 10 (≈ 71 µM) | 60 ± 6 (≈ 142 µM) | 30 ± 10 (≈ 71 µM) | 60 ± 6 (≈ 142 µM) | 30 ± 10 (≈ 71 µM) | 60 ± 6 (≈ 142 µM) | 30 ± 10 (≈ 71 µM) | 192 to 193 | 120 ± 40 (≈ 284 µM) | MIC [8]: 90 ± 3 µg/mL (≈ 213 µM); MFC [9]: 30 ± 10 µg/mL (≈ 71 µM); MIC [9]: 15 ± 3 µg/mL (≈ 35.5 µM); MIC (A. ochraceus): 4 ± 1 µg/mL (≈ 9.47 µM); MFC (A. ochraceus; Aspergillus ochraceus): 8 ± 0.6 µg/mL (≈ 18.9 µM); MIC (A. ochraceus; [15]): 4 µg/mL (≈ 9.47 µM); MIC [10]: 8 ± 0.6 µg/mL (≈ 18.9 µM); MFC ([10]; Trichoderma viride, IAM5061): 15 ± 3 µg/mL (≈ 35.5 µM); MIC [10, 16]: 8 µg/mL (≈ 18.9 µM); MFC [11]: 30 ± 10 µg/mL (≈ 71 µM); MIC [11]: 15 ± 3 µg/mL (≈ 35.5 µM); MFC [12]: 30 ± 10 µg/mL (≈ 71 µM); MIC [12]: 15 ± 3 µg/mL (≈ 35.5 µM); MFC (P. ochrochloron; Penicillium ochrochloron): 30 ± 10 µg/mL (≈ 71 µM); MIC (P. ochrochloron; [17]): 15 ± 3 µg/mL (≈ 35.5 µM)
